From ChEMBL document CHEMBL1133764, “Synthesis and cytokine modulation properties of pyrrolo[2, 3-d]-4-pyrimidone nucleosides” (2000)

What was measured:
[1] = tested on: T-cell line; experiment: Effect at 10 uM on PMA/ION-stimulated T-cell expression of the type 1 cytokine IFNgamma, determined in cell free supernatants by ELISA; type: functional, cell-based; conditions: Homo sapiens
[2] = tested on: T-cell line; experiment: Effect at 10 uM on PMA/ION-stimulated T-cell expression of the type 2 cytokine IL-4, determined in cell free supernatants by ELISA; type: functional, cell-based; conditions: Homo sapiens
[3] = tested on: T-cell line; experiment: Effect (10 uM) on PMA/ION-stimulated T-cell expression of the type 1 cytokine IFN gamma, which was determined in cell free supernatants by ELISA; type: functional, cell-based; conditions: Homo sapiens
[4] = tested on: T-cell line; experiment: Effect (10 uM) on PMA/ION-stimulated T-cell expression of the type 2 cytokine IL-4, which was determined in cell free supernatants by ELISA; type: functional, cell-based; conditions: Homo sapiens
[5] = tested on: T-cell line; experiment: Effect on PMA/ION-stimulated T-cell expression of the type 1 cytokine,TNF-alpha was determined in cell free supernatants by ELISA; type: functional, cell-based; conditions: Homo sapiens
[6] = tested on: T-cell line; experiment: Effect on PMA/ION-stimulated T-cell expression of the type 1 cytokine, IFNgamma was determined in cell free supernatants by ELISA; type: functional, cell-based; conditions: Homo sapiens
[7] = tested on: T-cell line; experiment: Effect on PMA/ION-stimulated T-cell expression of the type 1 cytokine,IL-2 was determined in cell free supernatants by ELISA; type: functional, cell-based; conditions: Homo sapiens
[8] = tested on: T-cell line; experiment: Effect on PMA/ION-stimulated T-cell expression of the type 1 cytokine,IL-5 was determined in cell free supernatants by ELISA; type: functional, cell-based; conditions: Homo sapiens
[9] = tested on: T-cell line; experiment: Effect (10 uM) on PMA/ION-stimulated T-cell expression of the type 2 cytokine, IL-4 was determined in cell free supernatants by ELISA; type: functional, cell-based; conditions: Homo sapiens
[10] = tested on: T-cell line; experiment: Effect (10 uM) on PMA/ION-stimulated T-cell expression of the type 1 cytokine, IL-5 was determined in cell free supernatants by ELISA; type: functional, cell-based; conditions: Homo sapiens
[11] = tested on: T-cell line; experiment: Effect (10 uM) on PMA/ION-stimulated T-cell expression of the type 1 cytokine,IL-2 was determined in cell free supernatants by ELISA; type: functional, cell-based; conditions: Homo sapiens
[12] = tested on: T-cell line; experiment: Effect (10 uM) on PMA/ION-stimulated T-cell expression of the type 1 cytokine,TNF-alpha was determined in cell free supernatants by ELISA; type: functional, cell-based; conditions: Homo sapiens
[13] = tested on: T-cell line; experiment: (§1) Effect (10 uM) on PMA/ION-stimulated T-cell expression of the type 1 cytokine, IFNgamma was determined in cell free supernatants by ELISA; type: functional, Homo sapiens
[14] = tested on: T-cell line; experiment: as §1; type: functional, cell-based; conditions: Homo sapiens
[15] = tested on: T-cell line; experiment: Effect (10 uM) on PMA/ION-stimulated T-cell expression of the type 1 cytokine IFNgamma, which was determined in cell free supernatants by ELISA; type: functional, cell-based; conditions: Homo sapiens
[16] = tested on: T-cell line; experiment: Effect (10 uM) on PMA/ION-stimulated T-cell expression of the type 1 cytokine IL-2, which was determined in cell free supernatants by ELISA; type: functional, cell-based; conditions: Homo sapiens
[17] = tested on: T-cell line; experiment: Effect (10 uM) on PMA/ION-stimulated T-cell expression of the type 1 cytokine TNF-alpha, which was determined in cell free supernatants by ELISA; type: functional, cell-based; conditions: Homo sapiens
[18] = tested on: T-cell line; experiment: Effect (10 uM) on PMA/ION-stimulated T-cell expression of the type 2 cytokine IL-5, which was determined in cell free supernatants by ELISA; type: functional, cell-based; conditions: Homo sapiens

Compound | Concentration [1] [pg/mL] | Concentration [2] [pg/mL] | Concentration [3] [pg/mL] | Concentration [4] [pg/mL] | further results
N#CC1=CN([C@H]2C[C@H](O)[C@@H](CO)O2)C2=NC=NC(=O)C12 (single isomer, unassigned; (+)) | 11900 | 194 |  |  | 
N=C(N)C1=CN([C@H]2C[C@H](O)[C@@H](CO)O2)C2=NC=NC(=O)C12 (single isomer, unassigned; (+)) |  |  | 14700 | 258 | 
CCCCCCCCCCCCC(=O)O[C@@H]1[C@@H](C)[C@@]2(O)[C@@H](C=C(CO)C[C@]3(O)C(=O)C(C)=C[C@@H]23)[C@@H]2C(C)(C)[C@]12OC(C)=O.C[C@H](CCC(=O)O)C[C@H](C)C[C@H](C)/C(O)=C/C(=O)[C@H](C)C[C@H](C)C/C=C/[C@@H](C)[C@@H](O)[C@@H](C)[C@@H](O)C[C@@H]1CC[C@@](C)([C@H]2CC[C@@](C)([C@@H](C)O)O2)O1 | 10400 |  |  |  | Concentration [5]: 2150 pg/mL; Concentration [6]: 10400 pg/mL; Concentration [7]: 27700 pg/mL; Concentration [8]: 93 pg/mL; Concentration [9]: 162 pg/mL
N=C(N)c1cn([C@@H]2O[C@H](CO)[C@@H](O)[C@H]2O)c2nc[nH]c(=O)c12 |  | < 557 |  |  | Concentration [10]: < 127 pg/mL; Concentration [11]: < 12700 pg/mL; Concentration [12]: < 968 pg/mL; IFN gamma concentration [13]: <5919 pg/mL
N=C(N)c1cn([C@@H]2O[C@H](CO)[C@@H](O)[C@@H]2O)c2nc[nH]c(=O)c12 | 7790 | 131 |  |  | 
N/C(=N\O)c1cn(C2CCC(CO)O2)c2ncnc(O)c12 (single isomer, unassigned; (+)) |  |  | 11200 | 152 | 
NC(=O)c1cn(C2O[C@H](CO)[C@@H](O)[C@H]2O)c2ncnc(O)c12 (single isomer, unassigned; (+)) |  | 183 |  |  | Concentration [10]: 67 pg/mL; Concentration [14]: 9140 pg/mL; Concentration [11]: 24400 pg/mL; Concentration [12]: 2170 pg/mL
C[C@]1(CO)OC(n2cc(C#N)c3c(O)ncnc32)[C@H](O)[C@@H]1O (single isomer, unassigned; (+)) | 9030 | 147 |  |  | 
NCc1cn([C@@H]2O[C@H](CO)[C@@H](O)[C@@H]2O)c2nc[nH]c(=O)c12 | 10800 | 142 |  |  | 
N=C(NN)c1cn([C@@H]2O[C@H](CO)[C@@H](O)[C@H]2O)c2nc[nH]c(=O)c12 | 11900 | 207 |  |  | 
N/C(=N\O)c1cn([C@H]2O[C@@H](CO)[C@H](O)[C@@H]2O)c2nc[nH]c(=O)c12 |  |  | 9660 | 142 | 
C[C@]1(CO)OC(n2cc(C(=N)N)c3c(O)ncnc32)[C@H](O)[C@@H]1O (single isomer, unassigned; (+)) |  |  | 9550 | 144 | 
C[C@H](O)[C@H]1OC(n2cc(C#N)c3c(O)ncnc32)[C@H](O)[C@@H]1O (single isomer, unassigned; (+)) | 10900 | 146 |  |  | 
N=C(N)c1cn(C2CCC(CO)O2)c2ncnc(O)c12 (single isomer, unassigned; (+)) |  |  | 13300 | 234 | 
C[C@H]1OC(n2cc(C(=N)NO)c3c(O)ncnc32)[C@H](O)[C@@H]1O (single isomer, unassigned; (+)) |  |  | 10600 | 149 | 
C[C@H]1OC(n2cc(C#N)c3c(O)ncnc32)[C@H](O)[C@@H]1O (single isomer, unassigned; (+)) | 9140 | 147 |  |  | 
N/C(=N\O)c1cn([C@@H]2O[C@H](CO)[C@@H](O)[C@@H]2O)c2nc[nH]c(=O)c12 |  |  | 10400 | 132 | 
N/C(=N\O)c1cn([C@@H]2O[C@H](CO)[C@@H](O)[C@H]2O)c2nc[nH]c(=O)c12 |  |  |  | 236 | Concentration [15]: 7270 pg/mL; Concentration [16]: 18000 pg/mL; Concentration [17]: 1590 pg/mL; Concentration [18]: 73 pg/mL
C[C@@H](O)[C@H]1OC(n2cc(C#N)c3c(O)ncnc32)[C@H](O)[C@@H]1O (stereo not given in full) | 13300 | 160 |  |  | 
C[C@H](O)[C@H]1OC(n2cc(C(=N)NO)c3c(O)ncnc32)[C@H](O)[C@@H]1O (single isomer, unassigned; (+)) |  |  | 11400 | 162 | 
C[C@H](O)[C@H]1OC(n2cc(C(=N)N)c3c(O)ncnc32)[C@H](O)[C@@H]1O (single isomer, unassigned; (+)) | 10700 | 146 |  |  | 
NC(=S)c1cn(C2O[C@H](CO)[C@@H](O)[C@H]2O)c2ncnc(O)c12 (stereo not given in full) |  | 176 |  |  | Concentration [5]: 2220 pg/mL; Concentration [6]: 7480 pg/mL; Concentration [7]: 23000 pg/mL; Concentration [8]: 59 pg/mL
C[C@@H](O)[C@H]1OC(n2cc(C(=N)NO)c3c(O)ncnc32)[C@H](O)[C@@H]1O (stereo not given in full) |  |  | 12300 | 186 | 
N=C(NN)c1cn([C@@H]2O[C@H](CO)[C@@H](O)[C@@H]2O)c2nc[nH]c(=O)c12 | 9860 | 117 |  |  | 
C[C@H]1OC(n2cc(C(=N)N)c3c(O)ncnc32)[C@H](O)[C@@H]1O (single isomer, unassigned; (+)) | 1310 | 152 |  |  | 
C[C@@H](O)[C@H]1OC(n2cc(C(=N)N)c3c(O)ncnc32)[C@H](O)[C@@H]1O (single isomer, unassigned; (+)) | 12100 | 159 |  |  | 
NCc1cn([C@@H]2O[C@H](CO)[C@@H](O)[C@H]2O)c2nc[nH]c(=O)c12 | 9340 | 125 |  |  | 
